Data reported in PubChem BioAssay AID288 (DTP/NCI, 2004).
Several values for one entry are separate records, joined by “and”; a condition that tells them apart may be missing. Identical values can stand only once. Records with an inconclusive call do not appear.

Test system: BDF1 mice, M5076 sarcoma s.c., survival/tumor T/C
Experiment: NCI In Vivo Anticancer Drug Screen. Data for tumor model Sarcoma M5076 (subcutaneous) in B6D2F1 (BDF1) mice
Experimental: The antitumor activity of compounds was measured in mice bearing transplantable tumors. Survival or tumor size were measured and the results are expressed as the measurement made in the treated group (T) divided by the measurement made in the vehicle treated control group (C). The tumor model used in this assay is Sarcoma M5076 (subcutaneous) in B6D2F1 (BDF1) mice

COc1cc(NS(C)(=O)=O)ccc1Nc1c2ccccc2nc2ccccc12
T/C (endpoint: mean tumor weight, dose: 1.88 mg/kg/injection, schedule: Q02DX011 (ip), vehicle: clinical formulation, higher = larger tumour): 68 % of control | T/C (endpoint: mean tumor weight, dose: 3.75 mg/kg/injection, schedule: Q02DX011 (ip), vehicle: clinical formulation, higher = larger tumour): 31 % of control | T/C (endpoint: median tumor weight (est.), dose: 1.88 mg/kg/injection, schedule: Q02DX011 (ip), vehicle: clinical formulation, higher = larger tumour): 79 % of control | T/C (endpoint: median tumor weight (est.), dose: 3.75 mg/kg/injection, schedule: Q02DX011 (ip), vehicle: clinical formulation, higher = larger tumour): 42 % of control

Nc1nc2c(c(=O)[nH]1)N(C=O)C(CNc1ccc(C(=O)N[C@@H](CCC(=O)O)C(=O)O)cc1)CN2 (stereo partly drawn)
T/C (endpoint: median survival time, dose: 50.0 mg/kg/injection, schedule: Q01DX009 (ip), vehicle: sodium bicarbonate, higher = longer survival): 101 % of control | T/C (endpoint: median survival time, dose: 100.0 mg/kg/injection, schedule: Q01DX009 (ip), vehicle: sodium bicarbonate, higher = longer survival): 96 % of control | T/C (endpoint: median survival time, dose: 200.0 mg/kg/injection, schedule: Q01DX009 (ip), vehicle: sodium bicarbonate, higher = longer survival): 101 % of control

CC1CCC(NC(=O)N(CCCl)N=O)CC1 (stereo not drawn)
T/C (endpoint: median survival time, dose: 2.5 mg/kg/injection, schedule: Q04DX009 (ip), vehicle: saline with Tween-80, higher = longer survival): 109 % of control | T/C (endpoint: median survival time, dose: 5.0 mg/kg/injection, schedule: Q02DX011 (ip), vehicle: Klucel (hydroxypropylcellulose) (HPC), higher = longer survival): 296 % of control | T/C (endpoint: median survival time, dose: 5.0 mg/kg/injection, schedule: Q02DX033 (ip), vehicle: saline with Tween-80, higher = longer survival): 230 % of control | T/C (endpoint: median survival time, dose: 5.0 mg/kg/injection, schedule: Q04DX005 (ip), vehicle: other, higher = longer survival): 191 % of control | T/C (endpoint: median survival time, dose: 5.0 mg/kg/injection, schedule: Q04DX009 (ip), vehicle: saline with Tween-80, higher = longer survival): 150 % of control | T/C (endpoint: median survival time, dose: 10.0 mg/kg/injection, schedule: Q02DX033 (ip), vehicle: saline with Tween-80, higher = longer survival): 252 % of control | T/C (endpoint: median survival time, dose: 10.0 mg/kg/injection, schedule: Q04DX005 (ip), vehicle: other, higher = longer survival): 233 % of control | T/C (endpoint: median survival time, dose: 10.0 mg/kg/injection, schedule: Q04DX009 (ip), vehicle: saline with Tween-80, higher = longer survival): 298 % of control | T/C (endpoint: median survival time, dose: 20.0 mg/kg/injection, schedule: Q01DX003 (ip), vehicle: saline with Tween-80, higher = longer survival): 160 % of control | T/C (endpoint: median survival time, dose: 20.0 mg/kg/injection, schedule: Q04DX009 (ip), vehicle: saline with Tween-80, higher = longer survival): 320 % of control | T/C (endpoint: median survival time, dose: 30.0 mg/kg/injection, schedule: Q01DX001 (ip), vehicle: saline with Tween-80, higher = longer survival): 154 % of control and 171 % of control | T/C (endpoint: median survival time, dose: 30.0 mg/kg/injection, schedule: Q01DX001 (oral), vehicle: saline with Tween-80, higher = longer survival): 160 % of control and 191 % of control | T/C (endpoint: median survival time, dose: 40.0 mg/kg/injection, schedule: Q01DX001 (oral), vehicle: saline with Tween-80, higher = longer survival): 179 % of control and 237 % of control (2×) | T/C (endpoint: median survival time, dose: 50.0 mg/kg/injection, schedule: Q01DX001 (ip), vehicle: saline with Tween-80, higher = longer survival): 153 % of control and 226 % of control (2×) | T/C (endpoint: median survival time, dose: 50.0 mg/kg/injection, schedule: Q01DX001 (oral), vehicle: saline with Tween-80, higher = longer survival): 194 % of control and 229 % of control (2×) | T/C (endpoint: median survival time, dose: 60.0 mg/kg/injection, schedule: Q01DX001 (oral), vehicle: saline with Tween-80, higher = longer survival): 229 % of control (2×) and 233 % of control

NCCc1ccc(O)c(O)c1
T/C (endpoint: mean tumor weight, dose: 25.0 mg/kg/injection, schedule: Q02DX011 (ip), vehicle: saline, higher = larger tumour): 53 % of control | T/C (endpoint: mean tumor weight, dose: 50.0 mg/kg/injection, schedule: Q02DX011 (ip), vehicle: saline, higher = larger tumour): 57 % of control | T/C (endpoint: mean tumor weight, dose: 100.0 mg/kg/injection, schedule: Q02DX011 (ip), vehicle: saline, higher = larger tumour): 62 % of control | T/C (endpoint: mean tumor weight, dose: 200.0 mg/kg/injection, schedule: Q02DX011 (ip), vehicle: saline, higher = larger tumour): 45 % of control | T/C (endpoint: mean tumor weight, dose: 400.0 mg/kg/injection, schedule: Q02DX011 (ip), vehicle: saline, higher = larger tumour): 76 % of control | T/C (endpoint: mean tumor weight, dose: 800.0 mg/kg/injection, schedule: Q02DX011 (ip), vehicle: saline, higher = larger tumour): 95 % of control | T/C (endpoint: median survival time, dose: 12.5 mg/kg/injection, schedule: Q02DX030 (ip), vehicle: saline, higher = longer survival): 114 % of control | T/C (endpoint: median survival time, dose: 25.0 mg/kg/injection, schedule: Q02DX030 (ip), vehicle: saline, higher = longer survival): 99 % of control | T/C (endpoint: median survival time, dose: 50.0 mg/kg/injection, schedule: Q02DX030 (ip), vehicle: saline, higher = longer survival): 91 % of control | T/C (endpoint: median survival time, dose: 100.0 mg/kg/injection, schedule: Q02DX030 (ip), vehicle: saline, higher = longer survival): 100 % of control | T/C (endpoint: median survival time, dose: 200.0 mg/kg/injection, schedule: Q02DX030 (ip), vehicle: saline, higher = longer survival): 93 % of control | T/C (endpoint: median survival time, dose: 800.0 mg/kg/injection, schedule: Q02DX030 (ip), vehicle: saline, higher = longer survival): 91 % of control | T/C (endpoint: median tumor weight (est.), dose: 25.0 mg/kg/injection, schedule: Q02DX011 (ip), vehicle: saline, higher = larger tumour): 58 % of control | T/C (endpoint: median tumor weight (est.), dose: 50.0 mg/kg/injection, schedule: Q02DX011 (ip), vehicle: saline, higher = larger tumour): 59 % of control | T/C (endpoint: median tumor weight (est.), dose: 100.0 mg/kg/injection, schedule: Q02DX011 (ip), vehicle: saline, higher = larger tumour): 80 % of control | T/C (endpoint: median tumor weight (est.), dose: 200.0 mg/kg/injection, schedule: Q02DX011 (ip), vehicle: saline, higher = larger tumour): 62 % of control | T/C (endpoint: median tumor weight (est.), dose: 400.0 mg/kg/injection, schedule: Q02DX011 (ip), vehicle: saline, higher = larger tumour): 66 % of control | T/C (endpoint: median tumor weight (est.), dose: 800.0 mg/kg/injection, schedule: Q02DX011 (ip), vehicle: saline, higher = larger tumour): 77 % of control | T/C (endpoint: median tumor weight change, dose: 12.5 mg/kg/injection, schedule: Q02DX006 (ip), vehicle: saline, higher = larger tumour): 86 % of control | T/C (endpoint: median tumor weight change, dose: 25.0 mg/kg/injection, schedule: Q02DX006 (ip), vehicle: saline, higher = larger tumour): 93 % of control | T/C (endpoint: median tumor weight change, dose: 50.0 mg/kg/injection, schedule: Q02DX006 (ip), vehicle: saline, higher = larger tumour): 112 % of control | T/C (endpoint: median tumor weight change, dose: 100.0 mg/kg/injection, schedule: Q02DX006 (ip), vehicle: saline, higher = larger tumour): 103 % of control | T/C (endpoint: median tumor weight change, dose: 200.0 mg/kg/injection, schedule: Q02DX006 (ip), vehicle: saline, higher = larger tumour): 105 % of control | T/C (endpoint: median tumor weight change, dose: 400.0 mg/kg/injection, schedule: Q02DX006 (ip), vehicle: saline, higher = larger tumour): 99 % of control | T/C (endpoint: median tumor weight change, dose: 800.0 mg/kg/injection, schedule: Q02DX006 (ip), vehicle: saline, higher = larger tumour): 101 % of control

O=NN(CCCl)C(=O)NC1CCCCC1
T/C (endpoint: median survival time, dose: 2.0 mg/kg/injection, schedule: Q04DX006 (ip), vehicle: saline with Tween-80, higher = longer survival): 117 % of control | T/C (endpoint: median survival time, dose: 3.0 mg/kg/injection, schedule: Q01DX009 (ip), vehicle: Klucel (hydroxypropylcellulose) (HPC), higher = longer survival): 168 % of control | T/C (endpoint: median survival time, dose: 4.0 mg/kg/injection, schedule: Q02DX033 (ip), vehicle: saline with Tween-80, higher = longer survival): 250 % of control | T/C (endpoint: median survival time, dose: 4.0 mg/kg/injection, schedule: Q04DX006 (ip), vehicle: saline with Tween-80, higher = longer survival): 120 % of control | T/C (endpoint: median survival time, dose: 6.0 mg/kg/injection, schedule: Q01DX009 (ip), vehicle: Klucel (hydroxypropylcellulose) (HPC), higher = longer survival): 215 % of control | T/C (endpoint: median survival time, dose: 8.0 mg/kg/injection, schedule: Q02DX033 (ip), vehicle: saline with Tween-80, higher = longer survival): 255 % of control | T/C (endpoint: median survival time, dose: 8.0 mg/kg/injection, schedule: Q04DX006 (ip), vehicle: saline with Tween-80, higher = longer survival): 183 % of control | T/C (endpoint: median survival time, dose: 12.0 mg/kg/injection, schedule: Q01DX009 (ip), vehicle: Klucel (hydroxypropylcellulose) (HPC), higher = longer survival): 215 % of control | T/C (endpoint: median survival time, dose: 16.0 mg/kg/injection, schedule: Q04DX006 (ip), vehicle: saline with Tween-80, higher = longer survival): 241 % of control | T/C (endpoint: median tumor weight (est.), dose: 1.5 mg/kg/injection, schedule: Q01DX009 (ip), vehicle: Klucel (hydroxypropylcellulose) (HPC), higher = larger tumour): 10 % of control

NCCNCC(O)CO (stereo not drawn)
T/C (endpoint: median survival time, dose: 50.0 mg/kg/injection, schedule: Q01DX009 (ip), vehicle: saline, higher = longer survival): 90 % of control | T/C (endpoint: median survival time, dose: 100.0 mg/kg/injection, schedule: Q01DX009 (ip), vehicle: saline, higher = longer survival): 112 % of control | T/C (endpoint: median survival time, dose: 200.0 mg/kg/injection, schedule: Q01DX009 (ip), vehicle: saline, higher = longer survival): 105 % of control | T/C (endpoint: median tumor weight (est.), dose: 100.0 mg/kg/injection, schedule: Q01DX009 (ip), vehicle: saline, higher = larger tumour): 76 % of control | T/C (endpoint: median tumor weight (est.), dose: 200.0 mg/kg/injection, schedule: Q01DX009 (ip), vehicle: saline, higher = larger tumour): 115 % of control
